Measurements as given in ChEMBL document CHEMBL3526037, “Evaluation of the relationship between sex, polymorphisms in CYP2C8 and CYP2C9, and pharmacokinetics of angiotensin receptor blockers” (Drug Metab Dispos, 2013).

Tests used:
Format in all cases: ADME, organism-based
[1] = Half life in women plasma at 25 to 32 mg by LC/MS/MS analysis; conditions: female, human
[2] = Cmax in human plasma expressing CYP2C8*2 allele carrier polymorphism at 25 to 32 mg by LC/MS/MS analysis
[3] = Clearance in women plasma at 25 to 32 mg by LC/MS/MS analysis; conditions: female, human
[4] = Half life in human plasma expressing CYP2C8*1/*1 polymorphism at 25 to 32 mg by LC/MS/MS analysis
[5] = AUC in human plasma expressing CYP2C8*1/*1 polymorphism at 25 to 32 mg by LC/MS/MS analysis
[6] = Cmax in human plasma expressing CYP2C8*3 allele carrier polymorphism at 25 to 32 mg by LC/MS/MS analysis
[7] = Cmax in human plasma expressing CYP2C8*4 allele carrier polymorphism at 25 to 32 mg by LC/MS/MS analysis
[8] = Tmax in human plasma expressing CYP2C8*2 allele carrier polymorphism at 25 to 32 mg by LC/MS/MS analysis
[9] = Tmax in human plasma expressing CYP2C8*3 allele carrier polymorphism at 25 to 32 mg by LC/MS/MS analysis
[10] = AUC in women plasma at 25 to 32 mg by LC/MS/MS analysis; conditions: female, human
[11] = Half life in men plasma at 25 to 32 mg by LC/MS/MS analysis; conditions: male, human
[12] = AUC in human plasma expressing CYP2C8*4 allele carrier polymorphism at 25 to 32 mg by LC/MS/MS analysis
[13] = AUC in human plasma expressing CYP2C9*2 allele carrier polymorphism at 25 to 32 mg by LC/MS/MS analysis
[14] = Half life in human plasma expressing CYP2C9*1/*1 polymorphism at 25 to 32 mg by LC/MS/MS analysis
[15] = Tmax in human plasma expressing CYP2C9*3 allele carrier polymorphism at 25 to 32 mg by LC/MS/MS analysis
[16] = Clearance in human plasma expressing CYP2C8*1/*1 polymorphism at 25 to 32 mg by LC/MS/MS analysis
[17] = Tmax in human plasma expressing CYP2C8*4 allele carrier polymorphism at 25 to 32 mg by LC/MS/MS analysis
[18] = Clearance in human plasma expressing CYP2C8*4 allele carrier polymorphism at 25 to 32 mg by LC/MS/MS analysis
[19] = Cmax in human plasma expressing CYP2C9*2 allele carrier polymorphism at 25 to 32 mg by LC/MS/MS analysis
[20] = Half life in human plasma expressing CYP2C9*3 allele carrier polymorphism at 25 to 32 mg by LC/MS/MS analysis
[21] = Tmax in human plasma expressing CYP2C9*2 allele carrier polymorphism at 25 to 32 mg by LC/MS/MS analysis
[22] = Tmax in women plasma at 25 to 32 mg by LC/MS/MS analysis; conditions: female, human
[23] = Cmax in human plasma expressing CYP2C9*3 allele carrier polymorphism at 25 to 32 mg by LC/MS/MS analysis
[24] = Half life in human plasma expressing CYP2C9*2 allele carrier polymorphism at 25 to 32 mg by LC/MS/MS analysis
[25] = Half life in human plasma expressing CYP2C8*2 allele carrier polymorphism at 25 to 32 mg by LC/MS/MS analysis
[26] = AUC in human plasma expressing CYP2C9*1/*1 polymorphism at 25 to 32 mg by LC/MS/MS analysis
[27] = Half life in human plasma expressing CYP2C8*4 allele carrier polymorphism at 25 to 32 mg by LC/MS/MS analysis
[28] = Cmax in men plasma at 25 to 32 mg by LC/MS/MS analysis; conditions: male, human
[29] = AUC in human plasma expressing CYP2C8*3 allele carrier polymorphism at 25 to 32 mg by LC/MS/MS analysis
[30] = Clearance in human plasma expressing CYP2C9*3 allele carrier polymorphism at 25 to 32 mg by LC/MS/MS analysis
[31] = AUC in human plasma expressing CYP2C9*3 allele carrier polymorphism at 25 to 32 mg by LC/MS/MS analysis
[32] = Clearance in human plasma expressing CYP2C8*3 allele carrier polymorphism at 25 to 32 mg by LC/MS/MS analysis
[33] = Clearance in human plasma expressing CYP2C9*1/*1 polymorphism at 25 to 32 mg by LC/MS/MS analysis
[34] = Tmax in human plasma expressing CYP2C8*1/*1 polymorphism at 25 to 32 mg by LC/MS/MS analysis
[35] = Clearance in human plasma expressing CYP2C8*2 allele carrier polymorphism at 25 to 32 mg by LC/MS/MS analysis
[36] = Tmax in human plasma expressing CYP2C9*1/*1 polymorphism at 25 to 32 mg by LC/MS/MS analysis
[37] = Cmax in human plasma expressing CYP2C9*1/*1 polymorphism at 25 to 32 mg by LC/MS/MS analysis
[38] = Cmax in human plasma expressing CYP2C8*1/*1 polymorphism at 25 to 32 mg by LC/MS/MS analysis
[39] = AUC in human plasma expressing CYP2C8*2 allele carrier polymorphism at 25 to 32 mg by LC/MS/MS analysis
[40] = Clearance in men plasma at 25 to 32 mg by LC/MS/MS analysis; conditions: male, human
[41] = Half life in human plasma expressing CYP2C8*3 allele carrier polymorphism at 25 to 32 mg by LC/MS/MS analysis
[42] = Clearance in human plasma expressing CYP2C9*2 allele carrier polymorphism at 25 to 32 mg by LC/MS/MS analysis
[43] = AUC in men plasma at 25 to 32 mg by LC/MS/MS analysis; conditions: male, human
[44] = Tmax in men plasma at 25 to 32 mg by LC/MS/MS analysis; conditions: male, human
[45] = Cmax in women plasma at 25 to 32 mg by LC/MS/MS analysis; conditions: female, human
[46] = Cmax in human plasma expressing CYP2C8*4 allele carrier polymorphism treated with losartan at 50 mg by LC/MS/MS analysis; design: dose 50 mg
[47] = Cmax in human plasma expressing CYP2C8*3 allele carrier polymorphism treated with losartan at 50 mg by LC/MS/MS analysis; design: dose 50 mg
[48] = Half life in human plasma expressing CYP2C8*1/*1 polymorphism treated with losartan at 50 mg by LC/MS/MS analysis
[49] = Half life in men plasma treated with losartan at 50 mg by LC/MS/MS analysis; conditions: male, human
[50] = Tmax in human plasma expressing CYP2C9*2 allele carrier polymorphism treated with losartan at 50 mg by LC/MS/MS analysis
[51] = Cmax in human plasma expressing CYP2C8*1/*1 polymorphism treated with losartan at 50 mg by LC/MS/MS analysis; design: dose 50 mg
[52] = Tmax in human plasma expressing CYP2C8*3 allele carrier polymorphism treated with losartan at 50 mg by LC/MS/MS analysis
[53] = Half life in human plasma expressing CYP2C9*1/*1 polymorphism treated with losartan at 50 mg by LC/MS/MS analysis
[54] = Cmax in women plasma treated with losartan at 50 mg by LC/MS/MS analysis; design: dose 50 mg; conditions: female, human
[55] = Cmax in men plasma treated with losartan at 50 mg by LC/MS/MS analysis; design: dose 50 mg; conditions: male, human
[56] = Tmax in human plasma expressing CYP2C9*1/*1 polymorphism treated with losartan at 50 mg by LC/MS/MS analysis
[57] = Tmax in human plasma expressing CYP2C9*3 allele carrier polymorphism treated with losartan at 50 mg by LC/MS/MS analysis
[58] = AUC in human plasma expressing CYP2C9*3 allele carrier polymorphism treated with losartan at 50 mg by LC/MS/MS analysis
[59] = AUC in human plasma expressing CYP2C8*3 allele carrier polymorphism treated with losartan at 50 mg by LC/MS/MS analysis
[60] = AUC in human plasma expressing CYP2C8*4 allele carrier polymorphism treated with losartan at 50 mg by LC/MS/MS analysis
[61] = AUC in human plasma expressing CYP2C9*2 allele carrier polymorphism treated with losartan at 50 mg by LC/MS/MS analysis
[62] = Cmax in human plasma expressing CYP2C9*3 allele carrier polymorphism treated with losartan at 50 mg by LC/MS/MS analysis; design: dose 50 mg
[63] = Tmax in women plasma treated with losartan at 50 mg by LC/MS/MS analysis; conditions: female, human
[64] = AUC in human plasma expressing CYP2C8*1/*1 polymorphism treated with losartan at 50 mg by LC/MS/MS analysis
[65] = Tmax in human plasma expressing CYP2C8*1/*1 polymorphism treated with losartan at 50 mg by LC/MS/MS analysis
[66] = AUC in human plasma expressing CYP2C9*1/*1 polymorphism treated with losartan at 50 mg by LC/MS/MS analysis
[67] = Half life in women plasma treated with losartan at 50 mg by LC/MS/MS analysis; conditions: female, human
[68] = Tmax in human plasma expressing CYP2C8*4 allele carrier polymorphism treated with losartan at 50 mg by LC/MS/MS analysis
[69] = Half life in human plasma expressing CYP2C8*3 allele carrier polymorphism treated with losartan at 50 mg by LC/MS/MS analysis
[70] = Cmax in human plasma expressing CYP2C9*2 allele carrier polymorphism treated with losartan at 50 mg by LC/MS/MS analysis; design: dose 50 mg
[71] = AUC in women plasma treated with losartan at 50 mg by LC/MS/MS analysis; conditions: female, human
[72] = Tmax in men plasma treated with losartan at 50 mg by LC/MS/MS analysis; conditions: male, human
[73] = Half life in human plasma expressing CYP2C9*2 allele carrier polymorphism treated with losartan at 50 mg by LC/MS/MS analysis
[74] = Half life in human plasma expressing CYP2C9*3 allele carrier polymorphism treated with losartan at 50 mg by LC/MS/MS analysis
[75] = AUC in men plasma treated with losartan at 50 mg by LC/MS/MS analysis; conditions: male, human
[76] = Cmax in human plasma expressing CYP2C9*1/*1 polymorphism treated with losartan at 50 mg by LC/MS/MS analysis; design: dose 50 mg
[77] = Half life in human plasma expressing CYP2C8*4 allele carrier polymorphism treated with losartan at 50 mg by LC/MS/MS analysis

`CCOc1nc2cccc(C(=O)O)c2n1Cc1ccc(-c2ccccc2-c2nnn[nH]2)cc1` gave a half-life [1] of 12.1 h, a Cmax [2] of 289 ng/mL and a clearance [3] of 2.5 mL/min/kg. The half-life [4] was 11.7 h, the AUC [5] was 3510 ng·h/mL and the Cmax [6] was 214 ng/mL. For the same compound, the Cmax [7] was 287 ng/mL, the Tmax [8] was 3.4 h and the Tmax [9] was 5.1 h. It also gave an AUC [10] of 3810 ng·h/mL, a half-life [11] of 11.3 h and an AUC [12] of 4130 ng·h/mL. It also gave an AUC [13] of 3450 ng·h/mL, a half-life [14] of 10.9 h and a Tmax [15] of 5 h. For the same compound, the clearance [16] was 2.5 mL/min/kg, the Tmax [17] was 4.1 h and the clearance [18] was 2.17 mL/min/kg. The Cmax [19] was 217 ng/mL, the half-life [20] was 12.1 h and the Tmax [21] was 4.8 h. The Tmax [22] was 4.9 h, the Cmax [23] was 230 ng/mL and the half-life [24] was 12.8 h. For the same compound, the half-life [25] was 10.7 h, the AUC [26] was 3590 ng·h/mL and the half-life [27] was 11.2 h. The Cmax [28] was 216 ng/mL, the AUC [29] was 3450 ng·h/mL and the clearance [30] was 2.5 mL/min/kg. For the same compound, the AUC [31] was 3630 ng·h/mL, the clearance [32] was 2.67 mL/min/kg and the clearance [33] was 2.33 mL/min/kg. The Tmax [34] was 5.2 h, the clearance [35] was 2.5 mL/min/kg and the Tmax [36] was 5.1 h. It also gave a Cmax [37] of 258 ng/mL, a Cmax [38] of 242 ng/mL and an AUC [39] of 3580 ng·h/mL. It also gave a clearance [40] of 2.33 mL/min/kg, a half-life [41] of 12 h and a clearance [42] of 2.5 mL/min/kg. The AUC [43] was 3260 ng·h/mL, the Tmax [44] was 5.1 h and the Cmax [45] was 260 ng/mL.
`CCCCc1nc(Cl)c(C(=O)O)n1Cc1ccc(-c2ccccc2-c2nn[nH]n2)cc1` [CARBOXYLIC ACID METABOLITE] showed a Cmax [46] of 382 ng/mL, a Cmax [47] of 196 ng/mL and a half-life [48] of 4.8 h. The half-life [49] was 4.9 h, the Tmax [50] was 3.5 h and the Cmax [51] was 249 ng/mL. The Tmax [52] was 3.7 h, the half-life [53] was 4.6 h and the Cmax [54] was 301 ng/mL. For the same compound, the Cmax [55] was 209 ng/mL, the Tmax [56] was 3.7 h and the Tmax [57] was 4.3 h. The AUC [58] was 2860 ng·h/mL, the AUC [59] was 1500 ng·h/mL and the AUC [60] was 2270 ng·h/mL. It also gave an AUC [61] of 1770 ng·h/mL, a Cmax [62] of 154 ng/mL and a Tmax [63] of 3.7 h. For the same compound, the AUC [64] was 2330 ng·h/mL, the Tmax [65] was 3.9 h and the AUC [66] was 2140 ng·h/mL. It also gave a half-life [67] of 4.8 h, a Tmax [68] of 2.8 h and a half-life [69] of 5.1 h. For the same compound, the Cmax [70] was 224 ng/mL, the AUC [71] was 2580 ng·h/mL and the Tmax [72] was 3.7 h. The half-life [73] was 4.9 h, the half-life [74] was 5.7 h and the AUC [75] was 1810 ng·h/mL. For the same compound, the Cmax [76] was 292 ng/mL and the half-life [77] was 4.6 h.
